Values quoted from earlier work as cited in patent US20090226522A1, “PROCESS TO MINIMIZE POLYMORPHISM” (priority 2008, published 2009).
Where two headings read alike, the source gives them in different places.

Cc1nnc2n1-c1ccc(Cl)cc1C(c1ccccc1)=NC2 [Alprazolam, 8-chloro-1-methyl-6-phenyl-4H-s-triazolo[4,3-α][1,4]benzodiazepine]
solubility in methanol or ethanol (methanol or ethanol): soluble
solubility in water (water): poorly soluble
solubility in water (water at physiological pH): no appreciable solubility
